The values below come from paper PMC6901289 (Journal of medicinal chemistry, 2019).

Series [1] has as its system α-tubulin acetylation in HCT116 cells. Kind of series: α-tubulin acetylation by immunofluorescence. In kind it is cell-based, human. As to conditions: six hours.
A short description of series [2]: Mouse body weight in xenograft study. The series is classed as in vivo, NSG mice. As to conditions: treatment groups of xenograft study, intraperitoneal.
For series [3], the system named is p53 acetylation in HCT116 cells. Kind of series: p53 K382 acetylation by western blot. As to conditions: for acetyl p53 (K382) levels: HCT116, 25 μM inhibitor with 400 nM TSA, 6 hours; for dose dependence of acetyl p53 levels: HCT116, 10–50 μM inhibitor with Trichostatin A.
Series [4] concerns the target T1, SIRT2 (Homo sapiens, UniProt Q8IXJ6).
T1 sequence (Q8IXJ6 1-389): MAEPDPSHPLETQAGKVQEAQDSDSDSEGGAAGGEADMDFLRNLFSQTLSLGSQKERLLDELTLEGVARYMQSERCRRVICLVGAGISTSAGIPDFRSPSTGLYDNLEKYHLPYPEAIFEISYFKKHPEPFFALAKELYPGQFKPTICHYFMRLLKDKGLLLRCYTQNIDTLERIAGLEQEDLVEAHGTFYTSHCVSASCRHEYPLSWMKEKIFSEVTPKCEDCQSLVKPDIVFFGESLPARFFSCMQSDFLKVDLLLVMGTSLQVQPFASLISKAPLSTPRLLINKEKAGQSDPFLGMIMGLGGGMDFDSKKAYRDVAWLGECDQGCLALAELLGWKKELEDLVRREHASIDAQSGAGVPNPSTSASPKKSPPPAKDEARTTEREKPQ
The series is described as follows: LC-MS detection of covalent intermediate with NAD+ in the presence of SIRT2. The series is classed as biochemical. As to conditions: incubated with an excess of SIRT2 and NAD+.

The subject of series [5] is HCT116 xenograft. The series is described as follows: HCT116 xenograft mice study. As to conditions: 25 mg/kg intraperitoneal, every day. The series is classed as in vivo, NSG mice.
Series [6] has as its system HCT116 cells. Kind of series: Soft agar colony formation assay. In kind it is cell-based, human. As to conditions: at a concentration of 10 μM and greater.
Series [7] concerns the target T1, SIRT2. Kind of series: Enzyme IC50 assay, acetyl H3K9 peptide, liquid chromatography. The series is classed as biochemical. As to conditions: relative selectivity for SIRT2 over SIRT1, Table 1.
Series [8] concerns the target T2, SIRT1 (Homo sapiens, UniProt Q96EB6).
T2 sequence (Q96EB6 1-747): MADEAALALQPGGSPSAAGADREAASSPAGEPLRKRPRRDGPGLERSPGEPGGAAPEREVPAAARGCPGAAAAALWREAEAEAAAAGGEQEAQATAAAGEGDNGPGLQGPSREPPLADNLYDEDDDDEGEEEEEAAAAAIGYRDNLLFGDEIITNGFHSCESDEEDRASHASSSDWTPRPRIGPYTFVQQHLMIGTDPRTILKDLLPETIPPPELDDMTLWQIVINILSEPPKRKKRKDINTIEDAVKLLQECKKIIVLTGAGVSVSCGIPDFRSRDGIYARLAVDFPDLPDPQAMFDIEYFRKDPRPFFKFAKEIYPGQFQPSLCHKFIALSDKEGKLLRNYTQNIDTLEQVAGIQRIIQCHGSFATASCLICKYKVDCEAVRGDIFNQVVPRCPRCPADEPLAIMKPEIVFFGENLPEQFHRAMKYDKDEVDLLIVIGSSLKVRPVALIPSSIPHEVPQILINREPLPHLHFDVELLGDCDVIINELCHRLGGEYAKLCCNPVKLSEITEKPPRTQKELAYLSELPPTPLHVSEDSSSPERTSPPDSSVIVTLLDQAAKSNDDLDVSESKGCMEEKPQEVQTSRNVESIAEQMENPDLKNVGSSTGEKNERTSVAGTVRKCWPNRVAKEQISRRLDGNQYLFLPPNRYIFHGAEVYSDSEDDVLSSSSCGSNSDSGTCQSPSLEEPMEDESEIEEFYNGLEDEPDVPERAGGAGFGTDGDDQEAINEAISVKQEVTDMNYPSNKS
The series is described as above. In kind it is biochemical. As to conditions: in vitro.

“Also recorded” adds a separate entry of the source.

On to `CCCCCCCCNC(=S)NCCCC[C@H](NC(=O)OCc1ccccc1)C(=O)Nc1ccccc1` [AF8, benzyl (S)-(6-(3-octylthioureido)-1-oxo-1-(phenylamino)hexan-2-yl)carbamate], for which the α-tubulin acetylation entry in series [1] (HCT116, 25 μM inhibitor) is reported as “extensive α-tubulin hyperacetylation; also recorded: increased α-tubulin acetylation”. For the same compound, the α-tubulin acetylation entry in series [1] (HCT116, 50 μM inhibitor) was “extensive α-tubulin hyperacetylation; also recorded: also increased α-tubulin acetylation”. Besides, the “mouse body weight loss” value in series [2] is listed as “No significant weight loss”. Also, in series [3], the “acetyl p53 (K382) levels” value is recorded as “did not increase the levels of acetyl p53; also recorded: did not noticeably increase p53 acetylation” and the “dose dependence of acetyl p53 levels” value is given as “did not increase acetyl p53 levels in a dose dependent manner”. The “covalent inhibitor-ADP-ribose intermediate by LC-MS” value in series [4] is “detected”. Besides, the “tumor growth by volume and weight” value in series [5] is “slightly decreased tumor growth by volume and weight but did not result in a statistically significant difference”. Moreover, in series [6], the “growth of HCT116 cells in soft agar” value was “completely inhibited”.

`CCCCCCCCCCNC(=S)NCCCC[C@H](NC(=O)OCc1ccccc1)C(=O)Nc1ccccc1` [AF10, Benzyl (S)-(6-(3-decylthioureido)-1-oxo-1-(phenylamino)hexan-2-yl)carbamate]: the α-tubulin acetylation entry in series [1] (HCT116, 25 μM inhibitor) is on record as “extensive α-tubulin hyperacetylation; also recorded: increased α-tubulin acetylation”. In addition, in series [1] (HCT116, 50 μM inhibitor), the α-tubulin acetylation result is on record as “extensive α-tubulin hyperacetylation; also recorded: also increased α-tubulin acetylation”. Also, in series [2], the “mouse body weight loss” value is recorded as “No significant weight loss”. In addition, in series [3], the “acetyl p53 (K382) levels” value is given as “did not increase the levels of acetyl p53; also recorded: did not noticeably increase p53 acetylation” and the “dose dependence of acetyl p53 levels” value was “very slight increase in acetyl p53”. Moreover, the “SIRT2/SIRT1 Selectivity” value in series [7] is given as over 1000. The “inhibition of SIRT1 deacetylase activity (in words)” value in series [8] was “no inhibition”. Besides, in series [6], the “growth of HCT116 cells in soft agar” value is on record as “completely inhibited”.

As to `CCCCCCCCCCCCNC(=S)NCCCC[C@H](NC(=O)OCc1ccccc1)C(=O)Nc1ccccc1` [AF12, Benzyl (S)-(6-(3-dodecylthioureido)-1-oxo-1-(phenylamino)hexan-2-yl)carbamate], the “SIRT2/SIRT1 Selectivity” value in series [7] is listed as over 1000. Also, the “inhibition of SIRT1 deacetylase activity (in words)” value in series [8] is given as “no inhibition”.

Turning to `CCCNC(=S)NCCCC[C@H](NC(=O)OCc1ccccc1)C(=O)Nc1cccc(O)c1` [Compound C3, Benzyl (S)-(1-((3-hydroxyphenyl)amino)-1-oxo-6-(3-propylthioureido)hexan-2-yl)carbamate], the α-tubulin acetylation entry in series [1] (HCT116, 25 μM inhibitor) was “did not increase the acetylation of α-tubulin”; in series [1] (HCT116, 50 μM inhibitor), “did not increase the acetylation of α-tubulin”. The “acetyl p53 (K382) levels” value in series [3] is listed as “did not increase the acetylation of p53”.

With `CCCCCNC(=S)NCCCC[C@H](NC(=O)OCc1ccccc1)C(=O)Nc1cccc(O)c1` [Compound C5, Benzyl (S)-(1-((3-hydroxyphenyl)amino)-1-oxo-6-(3-pentylthioureido)hexan-2-yl)carbamate], the α-tubulin acetylation result in series [1] (HCT116, 25 μM inhibitor) is listed as “slightly increased α-tubulin acetylation”; in series [1] (HCT116, 50 μM inhibitor) it was “increased α-tubulin acetylation; also recorded: more robustly increased acetylation”. Besides, in series [3], the “acetyl p53 (K382) levels” value is “moderately increased the acetylation of p53; also recorded: moderately increased acetyl p53 levels”.

For `CCCCCCCCCCNC(=S)NCCCC[C@H](NC(=O)OCc1ccccc1)C(=O)Nc1cccc(O)c1` [Compound C10, Benzyl (S)-(6-(3-decylthioureido)-1-((3-hydroxyphenyl)amino)-1-oxohexan-2-yl)carbamate], the α-tubulin acetylation entry is “more strongly increased α-tubulin acetylation; also recorded: increased α-tubulin acetylation” in series [1] (HCT116, 25 μM inhibitor) and “increased α-tubulin acetylation” in series [1] (HCT116, 50 μM inhibitor). The “acetyl p53 (K382) levels” value in series [3] is “moderately increased the acetylation of p53; also recorded: moderately increased acetyl p53 levels”. In series [3], the “dose dependence of acetyl p53 levels” value is “dose dependent increase in acetyl p53 levels; also recorded: dose dependent increase of acetyl p53”.

In the case of `CCCCCCCCCCCCCC(=S)NCCCC[C@H](NC(=O)OCc1ccccc1)C(=O)Nc1ccccc1` [TM, reference compound], the α-tubulin acetylation result in series [1] (HCT116, 25 μM inhibitor) is listed as “increased α-tubulin acetylation”; in series [1] (HCT116, 50 μM inhibitor), “also increased α-tubulin acetylation”. The “acetyl p53 (K382) levels” value in series [3] is reported as “did not increase the levels of acetyl p53”.
